As a reminder, the pIC50 is −log10 of the IC50, conventionally taken in molar units. A higher pIC50 goes with a low IC50.

The values below come from patent US20230374015A1, “INHIBITORS OF FIBROBLAST GROWTH FACTOR RECEPTOR KINASES” (Kinnate Biopharma Inc., priority 2020, published 2023).

The structures appear in SMILES notation. pIC50: −log10 of the molar value. Counter-ions that a name gives are not always drawn.

Sequence of FGFR2 (P21802 22-821): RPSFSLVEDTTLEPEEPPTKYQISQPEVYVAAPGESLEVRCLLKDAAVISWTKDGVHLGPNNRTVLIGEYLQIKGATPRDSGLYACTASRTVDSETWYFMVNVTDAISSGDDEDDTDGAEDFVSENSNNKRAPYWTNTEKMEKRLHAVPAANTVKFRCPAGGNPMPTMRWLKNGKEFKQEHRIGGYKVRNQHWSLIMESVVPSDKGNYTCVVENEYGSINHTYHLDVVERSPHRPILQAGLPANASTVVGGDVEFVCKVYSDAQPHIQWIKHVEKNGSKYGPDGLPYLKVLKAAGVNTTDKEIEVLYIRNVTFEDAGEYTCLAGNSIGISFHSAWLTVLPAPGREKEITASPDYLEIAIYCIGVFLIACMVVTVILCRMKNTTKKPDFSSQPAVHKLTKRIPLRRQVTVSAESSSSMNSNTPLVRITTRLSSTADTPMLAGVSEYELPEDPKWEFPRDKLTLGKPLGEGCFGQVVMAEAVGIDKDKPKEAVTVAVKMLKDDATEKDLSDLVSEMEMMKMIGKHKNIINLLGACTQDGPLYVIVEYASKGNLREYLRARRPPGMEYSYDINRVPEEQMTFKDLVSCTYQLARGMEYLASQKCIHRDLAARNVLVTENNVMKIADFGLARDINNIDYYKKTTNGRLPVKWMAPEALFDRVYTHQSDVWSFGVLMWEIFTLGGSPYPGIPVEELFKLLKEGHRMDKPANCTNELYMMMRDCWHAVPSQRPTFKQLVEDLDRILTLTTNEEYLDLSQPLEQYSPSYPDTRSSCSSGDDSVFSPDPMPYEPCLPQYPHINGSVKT

The target in the first experiment is FGFR2 (Homo sapiens, UniProt P21802). The experiment in a line: FGFR2 Kinase Protocol - Condition 2 (Reaction Biology HotSpot radiometric kinase assay, no preincubation). Format: biochemical. Conditions: poly[Glu:Tyr] (4:1) 0.2 mg/ml, ATP 100 microM, 2 hr room temperature. In outline:
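Ten-point, 3-fold compound dilutions were tested against wildtype or V564F FGFR2 with 100 µM ATP (33P-labelled), no preincubation, and 0.2 mg/ml poly[Glu:Tyr] (4:1) substrate. After 2 hr at room temperature, incorporation was read on P81 filter paper; IC50 fitted from activity remaining relative to vehicle.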
`C=CC(=O)N1C[C@@H](n2cc(C#Cc3c(F)cc4c(ncn4CC)c3F)c3c(N)ncnc32)C[C@@H]1COC` [Example 87, 1-[(2R,4S)-4-[4-Amino-5-[2-(1-ethyl-4,6-difluoro-1,3-benzodiazol-5-yl)ethynyl]pyrrolo[2,3-d]pyrimidin-7-yl]-2-(methoxymethyl)pyrrolidin-1-yl]prop-2-en-1-one]: the negative-log IC50 (pIC50) is not below 7.00.

`C=CC(=O)N1CC[C@H](n2nc(C#Cc3cc4ncn(C5CC5)c4cc3F)c3c(N)nccc32)C1` [Example 149, 1-[(3S)-3-{4-Amino-3-[2-(1-cyclopropyl-6-fluoro-1,3-benzodiazol-5-yl)ethynyl]pyrazolo[4,3-c]pyridin-1-yl}pyrrolidin-1-yl]prop-2-en-1-one] had a pIC50 not below 7.00.

`C=CC(=O)N1C[C@@H](n2nc(C#Cc3cc4ncn(CC)c4cc3Cl)c3c(N)nccc32)C[C@@H]1C(F)F` [Example 183, 1-((2R,4S)-4-(4-amino-3-((6-chloro-1-ethyl-1H-benzo[d]imidazol-5-yl)ethynyl)-1H-pyrazolo[4,3-c]pyridin-1-yl)-2-(difluoromethyl)pyrrolidin-1-yl)prop-2-en-1-one]: the pIC50 is not below 7.00.

`C=CC(=O)N1C[C@@H](n2nc(C#Cc3ccc4c(c3)nc(C)n4CC)c3c(N)ncnc32)C[C@@H]1CC#N` [Example 52, 2-((2R,4S)-1-acryloyl-4-(4-amino-3-((1-ethyl-2-methyl-1H-benzo[d]imidazol-5-yl)ethynyl)-1H-pyrazolo[3,4-d]pyrimidin-1-yl)pyrrolidin-2-yl)acetonitrile] had a pIC50 not below 7.00.

With `C=CC(=O)N1C[C@@H](n2nc(C#Cc3cc4ncn(C5CC5)c4cc3Cl)c3c(N)ncnc32)C[C@@H]1COC` [Example 126, 1-[(2R,4S)-4-[4-Amino-3-[2-(6-chloro-1-cyclopropyl-1,3-benzodiazol-5-yl)ethynyl]pyrazolo[3,4-d]pyrimidin-1-yl]-2-(methoxymethyl)pyrrolidin-1-yl]prop-2-en-1-one], the pIC50 is not below 7.00.

`C=CC(=O)N1C[C@@H](n2nc(C#Cc3cc4ncn(C5CC5)c4cc3F)c3c(N)nccc32)C[C@@H]1C(F)F` [Example 182, 1-((2R,4S)-4-(4-amino-3-((1-cyclopropyl-6-fluoro-1H-benzo[d]imidazol-5-yl)ethynyl)-1H-pyrazolo[4,3-c]pyridin-1-yl)-2-(difluoromethyl)pyrrolidin-1-yl)prop-2-en-1-one] had a pIC50 not below 7.00.

`C=CC(=O)N1C[C@@H](n2nc(C#Cc3cc4ncoc4cc3F)c3c(N)ncnc32)C[C@@H]1COC` [Example 119, 1-[(2R,4S)-4-[4-Amino-3-[2-(6-fluoro-1,3-benzoxazol-5-yl)ethynyl]pyrazolo[3,4-d]pyrimidin-1-yl]-2-(methoxymethyl)pyrrolidin-1-yl]prop-2-en-1-one] had a negative-log IC50 (pIC50) not below 7.00.

`C=CC(=O)N1C[C@@H](n2nc(C#Cc3c(F)cc4nn(CC)cc4c3F)c3c(N)ncnc32)C[C@@H]1COC` [Example 49, 1-((2R,4S)-4-(4-amino-3-((2-ethyl-4,6-difluoro-2H-indazol-5-yl)ethynyl)-1H-pyrazolo[3,4-d]pyrimidin-1-yl)-2-(methoxymethyl)pyrrolidin-1-yl)prop-2-en-1-one] showed a pIC50 of 6.00 to 7.00.

As for `C=CC(=O)N1C[C@@H](c2nc(C#Cc3cc4ncn(C5CC5)c4cc3F)c3c(N)ncnn23)C[C@@H]1COC` [Example 199, 1-[(2R,4S)-4-{4-Amino-5-[2-(1-cyclopropyl-6-fluoro-1,3-benzodiazol-5-yl)ethynyl]imidazo[4,3-f][1,2,4]triazin-7-yl}-2-(methoxymethyl)pyrrolidin-1-yl]prop-2-en-1-one], the negative logarithm of the IC50 (pIC50) is not below 7.00.

Compound `C=CC(=O)N1C[C@@H](n2nc(C#Cc3ccc4c(cnn4C)c3)c3c(N)ncnc32)C[C@@H]1COC` [Example 40, 1-((2R,4S)-4-(4-amino-3-((1-methyl-1H-indazol-5-yl)ethynyl)-1H-pyrazolo[3,4-d]pyrimidin-1-yl)-2-(methoxymethyl)pyrrolidin-1-yl)prop-2-en-1-one] gave a pIC50 not below 7.00.

In turn, `C=CC(=O)N1C[C@@H](n2nc(C#Cc3cc4ncn(C)c4cc3F)c3c(N)nccc32)C[C@@H]1COC(F)(F)F` [Example 59, 1-((2R,4S)-4-(4-amino-3-((6-fluoro-1-methyl-1H-benzo[d]imidazol-5-yl)ethynyl)-1H-pyrazolo[4,3-c]pyridin-1-yl)-2-((trifluoromethoxy)methyl)pyrrolidin-1-yl)prop-2-en-1-one formate] had a pIC50 not below 7.00.

Compound `C=CC(=O)N1C[C@@H](n2nc(C#Cc3cc4ncn(C(F)F)c4cc3F)c3c(N)nccc32)C[C@@H]1COC` [Example 83, 1-[(2R,4S)-4-(4-Amino-3-[2-[1-(difluoromethyl)-6-fluoro-1,3-benzodiazol-5-yl]ethynyl]pyrazolo[4,3-c]pyridin-1-yl)-2-(methoxymethyl)pyrrolidin-1-yl]prop-2-en-1-one] showed a negative-log IC50 (pIC50) not below 7.00.

On to `C=CC(=O)N1CC[C@H](n2nc(C#Cc3cc4ncn(C)c4cc3F)c3c(N)ncnc32)C1` [Example 140, 1-[(3S)-3-{4-Amino-3-[2-(6-fluoro-1-methyl-1,3-benzodiazol-5-yl)ethynyl]pyrazolo[3,4-d]pyrimidin-1-yl}pyrrolidin-1-yl]prop-2-en-1-one], for which the pIC50 was not below 7.00.

The compound `C=CC(=O)N1C[C@@H](n2nc(C#Cc3ccc4c(c3)nc(C)n4CC)c3c(N)nccc32)C[C@@H]1CC#N` [Example 53, 2-[(2R,4S)-4-[4-Amino-3-[2-(1-ethyl-2-methyl-1,3-benzodiazol-5-yl)ethynyl]pyrazolo[4,3-c]pyridin-1-yl]-1-(prop-2-enoyl)pyrrolidin-2-yl]acetonitrile; formic acid] gave a pIC50 not below 7.00.

`C=CC(=O)N1CC[C@H](n2nc(C#Cc3cc4ncn(CC)c4cc3F)c3c(N)nccc32)C1` [Example 150, 1-[(3S)-3-{4-Amino-3-[2-(1-ethyl-6-fluoro-1,3-benzodiazol-5-yl)ethynyl]pyrazolo[4,3-c]pyridin-1-yl}pyrrolidin-1-yl]prop-2-en-1-one] showed a pIC50 not below 7.00.

In the case of `C=CC(=O)N1C[C@@H](n2nc(C#Cc3cc4ncn(C5CC5)c4cc3F)c3c(N)ncnc32)C[C@@H]1COC(F)(F)F` [Example 78, 1-((2R,4S)-4-(4-Amino-3-((1-cyclopropyl-6-fluoro-1H-benzo[d]imidazol-5-yl)ethynyl)-1H-pyrazolo[3,4-d]pyrimidin-1-yl)-2-((trifluoromethoxy)methyl)pyrrolidin-1-yl)prop-2-en-1-one], the pIC50 was not below 7.00.

As for `C=CC(=O)N1C[C@@H](n2cc(C#Cc3cc4ncn(C)c4cc3Cl)c3c(N)ncnc32)C[C@@H]1COC` [Example 91, 1-[(2R,4S)-4-[4-Amino-5-[2-(6-chloro-1-methyl-1,3-benzodiazol-5-yl)ethynyl]pyrrolo[2,3-d]pyrimidin-7-yl]-2-(methoxymethyl)pyrrolidin-1-yl]prop-2-en-1-one], the pIC50 was not below 7.00.

Still in this experiment, the particulars now being: poly[Glu:Tyr] (4:1) 0.2 mg/ml, ATP 100 microM, 2 hr room temperature, given as numeric bound.
In turn, `C=CC(=O)N1C[C@H](c2nc(C#Cc3cc4ncn(C5CC5)c4cc3F)c3c(N)nccn23)C[C@@H]1COC` [Example 202, 1-[(2R,4R)-4-{8-Amino-1-[2-(1-cyclopropyl-6-fluoro-1,3-benzodiazol-5-yl)ethynyl]imidazo[1,5-a]pyrazin-3-yl}-2-(methoxymethyl)pyrrolidin-1-yl]prop-2-en-1-one] showed a pIC50 of less than 6.30.
